Experimental findings from article PMC12355554, “Development of novel mitochondrial pyruvate carrier inhibitors for breast cancer treatment” (The Journal of Biological Chemistry, 2025) are described below.

A word on the half-life: it is the time needed for the level to fall by half in the phase considered. A high value points to slow loss.

Like-named read-outs stand apart in the source and are kept apart here. Some results are limits rather than exact numbers.

Data set [1] has as its target T1, mitochondrial pyruvate carrier (MPC) (Mus musculus, UniProt P63030+Q9D023).
T1 construct: host or cells: 4T1 murine breast cancer cells, rPFO-permeabilized
T1 sequence (P63030 1-109): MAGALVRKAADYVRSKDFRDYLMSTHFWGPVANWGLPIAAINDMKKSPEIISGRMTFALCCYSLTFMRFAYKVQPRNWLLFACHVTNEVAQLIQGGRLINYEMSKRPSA
T1 sequence (Q9D023 1-127): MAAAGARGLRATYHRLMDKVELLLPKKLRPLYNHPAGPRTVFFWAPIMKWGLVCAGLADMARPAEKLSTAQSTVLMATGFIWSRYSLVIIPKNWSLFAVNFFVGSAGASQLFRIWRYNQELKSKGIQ
The experiment in a line: Seahorse XFe96 Pyr-driven respiration in rPFO-permeabilized 4T1 cells. The format is cell-based, murine. Conditions: for effect on Pyr-driven respiration: Pyr/Mal, candidate compounds 1 μM. As to the method:
After validating the ability of rPFO to permeabilize 4T1 cells without damaging mitochondria, we sought to investigate the ability of candidate compounds to inhibit Pyr-driven respiration in these cells (Fig. 1, D–G). In this regard, 4T1 cells were seeded in Seahorse XFe96 well plates and were incubated to reach confluence (∼18–24 h) in growth media (+serum). Growth media were then aspirated, and cells were washed with MAS buffer to remove serum and endogenous metabolic substrates. Serum- and substrate-starved cells were then incubated for equilibration in MAS buffer in a non-CO2 incubator. Inhibitors, rPFO, and substrate milieus were prepared in MAS buffer to be injected in succession to allow for real-time observation of the effects of compound-treated cultures on oxygen consumption rates (OCRs) when compared with vehicle (dimethyl sulfoxide [DMSO])-treated cells. Equilibrated intact cells were allowed to establish basal respiratory rates, followed by the injection of candidate compounds C1 to C4 at varying dose-titrated concentrations, respectively, and acute decreases in OCR were observed (Fig. 1, D–G). Compound exposure was performed in intact cells to avoid influence of rPFO on acute cellular targets. Cells were then exposed to rPFO, followed by the carbonyl cyanide-p-trifluoromethoxyphenylhydrazone (FCCP)–stimulated Pyr substrate milieu, which consisted of Pyr, malate (Mal), and dichloroacetate (DCA) to fuel uninhibited Pyr respiratory flux and maximal respiration. Mal and DCA were included to allow for continuous TCA cycle function without acetyl CoA feedback–mediated inhibition (Mal) or Pyr dehydrogenase–regulated inhibition (DCA) of Pyr uptake. Here, we observed a dose-dependent inhibition of Pyr-driven respiration in cells treated with the candidate compounds, allowing for logarithmic dose–response curves to be generated, and 50% inhibitory concentrations (IC50) to be calculated (Fig. 1, D–G). Finally, complex I and […] were injected to halt respiration and end the assay. […] In this regard, the fluoro-aminocarboxycoumarin derivative C4 has been designated as the lead candidate for further investigation.
(§1) Permeabilized cell assays were performed using rPFO as described previously. 4T1 cells were seeded (20,000 cells/well) onto Seahorse XFe96 well plates and incubated overnight in growth media at 37 °C and 5% CO2 for adherence. On the day of the assay, growth media were aspirated and replaced with MAS buffer (70 mM sucrose, 220 mM mannitol, 10 mM potassium phosphate monobasic, 5 mM magnesium chloride, 2 mM Hepes, and 1 mM EGTA) after 3X rinse of growth media to remove serum and endogenous metabolic substrates, and incubated at 37 °C in a non-CO2 incubator. Respective inhibitor and substrate milieu's were prepared in MAS buffer for port injections A–D at 8X, 9X, 10X, and 11X the target cell concentrations to account for intrinsic dilution factor of in situ injections of each port. […] Final substrate concentrations for specific tests were as follows: (5 mM Pyr , 0.5 mM Mal, 2 mM DCA; 10 mM glutamate, 0.5 mM Mal, 2 mM DCA; 10 mM succinate, 2 μM rotenone; 20 mM methyl Pyr, 5 mM Pyr, 0.5 mM Mal, and 2 mM DCA). ATP rate assays and mitochondrial stress tests were performed according to the manufacturer's (Agilent) instructions.

Data set [2] deals with glutamate-driven respiration in 4T1 cells. Kind of data set: Seahorse glutamate-driven respiration in permeabilized 4T1 cells. The format is cell-based, murine. Conditions: Glu/Mal, candidate compounds 1 μM.
Source text: (§2) Although our initial experiments and previous literature illustrate the ability of the candidate compounds to inhibit Pyr-driven respiration, we sought to investigate the ability of candidate compounds to inhibit respiration fueled by other metabolic substrates, glutamate and succinate (Fig. 2). Glutamate, similar to Pyr oxidation, results in NADH equivalents that fuel complex I-mediated respiration, and succinate metabolism offers FADH2 for electrons in complex II-driven respiratory processes. […] To further validate the mode of action of the candidate compounds, a series of similar Seahorse experiments were employed (Fig. 2, A–C). In these experiments, 4T1 cells were first permeabilized and were then offered metabolic substrates Pyr (Pyr/Mal; Fig. 2A), glutamate (Glu/Mal, Fig. 2B), or succinate (Fig. 2C), and the resulting OCR was observed. As described previously, Mal and DCA were included in the substrate milieu of glutamate respiration experiments. […] To validate that inhibition of Pyr respiration is due to mitochondrial Pyr uptake and not other Pyr-processing enzymes (i.e., Pyr dehydrogenase), a parallel experiment using methyl pyruvate (MePyr) was employed (Fig. 2, E and F). MePyr is permeable to the mitochondrial membranes, where in the matrix, mitochondrial esterase hydrolysis activity provides Pyr.
as §1

The subject of data set [3] is succinate-driven respiration in 4T1 cells. Kind of data set: Seahorse succinate-driven respiration in permeabilized 4T1 cells. The data set is classed as cell-based, murine. Conditions: candidate compounds 1 μM.
Source text: as §2, §1

The target in data set [4] is T1, mitochondrial pyruvate carrier (MPC). The experiment in a line: Methyl pyruvate reversal of inhibited Pyr-driven respiration. The note with it: permeabilized 4T1 cells; 20 mM methyl Pyr. The format is cell-based, murine.
Source text: as §2
Permeabilized cell assays were performed using rPFO as described previously. […]

The nature of data set [5]: Intrinsic CL in human liver microsomes. The data set is classed as in vitro ADME. The note with it: human, liver microsomes; exceeding the experimental endpoints.
The target of data set [6] is T1, mitochondrial pyruvate carrier (MPC). Kind of data set: Michaelis-Menten kinetics of mitochondrial pyruvate uptake (Seahorse OCR). The format is cell-based, murine. The note with it: permeabilized 4T1 cells; 10 nM inhibitor. As to the method:
To further investigate the type of inhibition, we employed Michaelis–Menten experiments in modified Seahorse XFe96–based assays similar to described previously, and based on the model that Pyr uptake is directly coupled to NADH oxidation and oxygen consumption (Fig. 3A). In these experiments, 4T1 cells were permeabilized and were then administered varying concentrations of Pyr in the presence or the absence of 10 nM C3 or C4, respectively (Fig. 3, B–F). A rise in OCR indicated Pyr-driven respiration, where subsequent addition of FCCP stimulated maximal respiration, and substrate-dependent increases in OCR were observed and normalized to protein content (Fig. 3, B–F). In this regard, Michaelis–Menten curves were generated using the FCCP-stimulated OCR in C3- or C4-treated and -untreated cells where Michaelis–Menten parameters of maximal velocity (Vmax) and half-maximal substrate concentrations (Km) were calculated (Fig. 3, E–G). Michaelis–Menten assumptions include direct and irreversible substrate and carrier interaction that results in the OCRs and is analogous to standard enzymatic Michaelis–Menten models (Fig. 3A). […] Thus, C3 decreased the Vmax and increased the Km, not consistent with competitive inhibition where high substrate concentrations titrate out the inhibitor to reach intrinsic Vmax values. However, potential covalent bonding of inhibitor may limit the ability of Pyr to displace C3 from the active site, resulting in the observed “mixed” mode of inhibition.

Setting [7] is: read-out: IC50, inhibition of Pyr-driven respiration.
Where [8] appears, read: average ± SEM, read-out: IC50, inhibition of Pyr-driven respiration (Fig. 1G, unit inferred).

On to `O=C(O)c1cc2ccc(N(c3ccc(F)cc3)c3ccc(F)cc3)cc2oc1=O` [C1, 7-(bis(4-fluorophenyl)amino)-2-oxo-2H-chromene-3-carboxylic acid], for which the IC50 in data set [1] (setting [7]) is > 1000 nM.
With `CN(c1ccc(F)cc1)c1ccc2cc(C(=O)O)c(=O)oc2c1` [C2, 7-((4-fluorophenyl)(methyl)amino)-2-oxo-2H-chromene-3-carboxylic acid], the “effect on glutamate-driven respiration” value in data set [2] is “without substantial effects”. In data set [3], the “effect on succinate-driven respiration” value is “without substantial effects”. Further, the “effect on Pyr-driven respiration” value in data set [1] is on record as “specifically inhibits”. For the same molecule, the figures for the IC50 in data set [1] (setting [8]) and in data set [1] (setting [7]) were 148 ± 8.9 nM and 147 nM, respectively.
For the molecule `CN(Cc1ccccc1)c1ccc2cc(C(=O)O)c(=O)oc2c1` [C3, 7-(benzyl(methyl)amino)-2-oxo-2H-chromene-3-carboxylic acid], the “reversal of Pyr-driven respiration effects by methyl pyruvate” value in data set [4] is “completely reversed”. The “effect on glutamate-driven respiration” value in data set [2] is given as “without substantial effects”. Also, the “effect on succinate-driven respiration” value in data set [3] was “without substantial effects”. Besides, in data set [5], the half-life is > 120 min. Also, the “effect on Pyr-driven respiration” value in data set [1] is on record as “specifically inhibits”. Moreover, in data set [1] (setting [8]), the IC50 turned out to be 18.3 ± 0.8 nM. Besides, in data set [1] (setting [7]), the IC50 stood at 18 nM. In data set [6], the “Vmax of Pyr-driven FCCP-stimulated OCR” value amounted to 10.8 pmol/min and the mode of inhibition result is on record as “mixed”.
With `CN(Cc1ccc(F)cc1)c1ccc2cc(C(=O)O)c(=O)oc2c1` [C4, 7-((4-fluorobenzyl)(methyl)amino)-2-oxo-2H-chromene-3-carboxylic acid], the “effect on glutamate-driven respiration” value in data set [2] is on record as “without substantial effects”. Besides, the “effect on succinate-driven respiration” value in data set [3] is listed as “without substantial effects”. The “effect on Pyr-driven respiration” value in data set [1] is given as “specifically inhibits”. For the same molecule, the IC50 was found to be 16.6 ± 4.8 nM in data set [1] (setting [8]) and 16 nM in data set [1] (setting [7]). In addition, in data set [6], the mode of inhibition result was “competitive”.
